This test deals with HIV-1 NL4-3 strain. Briefly: Evaluation of antiviral activity: acute infection system of MT-4 cell with HIV-1 NL4-3 strain. The format is cell-based. The conditions noted are these: Human immunodeficiency virus 1, NL43, MT4, 120 h.
The mark [1] stands for this setting: antiviral activity, MT-4 cells infected with HIV-1 NL4-3 (MOI 0.05), 5 days culture, Cell Titer-Glo luminescence.
The mark [2] stands for this setting: MT-4 cells infected with HIV-1 NL4-3 strain (MOI 0.05), cultured 5 days, Cell Titer-Glo, read-out: antiviral activity (EC50).
Setting [3] is: read-out: antiviral activity (EC50), MT-4 cells infected with HIV-1 NL4-3 strain (MOI 0.05), cultured 5 days, Cell Titer-Glo.
[4] abbreviates: antiviral activity, MT-4 cells infected with HIV-1 NL4-3 (MOI 0.05), 5 days culture, Cell Titer-Glo luminescence, read-out: EC50.

Each structure is given as a SMILES string. Structures can show the parent of a compound that is named as a salt. Where two headings read alike, the source gives them in different places.

Usually EC50 stands for the concentration giving half of the maximal effect. `CC(C)N1C[C@]2(C[C@H]2CO)n2cc(C(=O)NCc3ccc(F)cc3F)c(=O)c(O)c2C1=O` [Example 11, (1R,2R)—N-(2,4-difluorobenzyl)-9′-hydroxy-2-(hydroxymethyl)-2′-isopropyl-1′,8′-dioxo-1′,2′,3′,8′-tetrahydrospiro[cyclopropane-1,4′-pyrido[1,2-a]pyrazine]-7′-carboxamide hydrochloride] came in with an EC50 under setting [1] of 5.8 nM.
Consider `CO[C@H]1C[C@]2(CN(C)C(=O)c3c(O)c(=O)c(C(=O)NCc4cccc(Cl)c4F)cn32)C1` [Example 25, Monopotassium 7′-(3-chloro-2-fluorobenzylcarbamoyl)-cis-3-methoxy-2′-methyl-1′,8′-dioxo-1′,2′,3′,8′-tetrahydrospiro[cyclobutane-1,4′-pyrido[1,2-a]pyrazin]-9′-olate], for which the EC50 (read-out: antiviral activity (EC50)) was 2.1 nM.
As to `CC(C)N1C[C@]2(C[C@@H](CO)C2)n2cc(C(=O)NCc3ccc(F)cc3F)c(=O)c(O)c2C1=O` [Example S24, N-(2,4-difluorobenzyl)-9′-hydroxy-trans-3-(hydroxymethyl)-2′-isopropyl-1′,8′-dioxo-1′,2′,3′,8′-tetrahydrospiro[cyclobutane-1,4′-pyrido[1,2-a]pyrazine]-7′-carboxamide hydrobromide], the EC50 under setting [2] is 16 nM.
The same measure, in the same setting: with `CC(C)N1C[C@]2(C[C@H](C(=O)N(C)C)C2)n2cc(C(=O)NCc3ccc(F)cc3F)c(=O)c(O)c2C1=O` [Example S31, N^7′-(2,4-difluorobenzyl)-9′-hydroxy-2′-isopropyl-N^3-N^3-dimethyl-1′,8′-dioxo-1′,2′,3′,8′-tetrahydrospiro[cyclobutane-1,4′-pyrido[1,2-a]pyrazine]- cis-3,7′-dicarboxamide hydrochloride] the figure was 24 nM.
With `COC[C@@H]1C[C@]12CN(C)C(=O)c1c(O)c(=O)c(C(=O)NCc3cccc(Cl)c3F)cn12` [Example T24, (1R,2R)-N-(3-chloro-2-fluorobenzyl)-9′-hydroxy-2-(methoxymethyl)-2′-methyl-1′,8′-dioxo-1′,2′,3′,8′-tetrahydrospiro[cyclopropane-1,4-pyrido[1,2-a]pyrazine]-7′-carboxamide hydrochloride], under setting [3], the EC50 came out at 3.2 nM.
For the compound `CC(C)N1C[C@]2(C[C@@H](OS(C)(=O)=O)C2)n2cc(C(=O)NCc3ccc(F)cc3F)c(=O)c(O)c2C1=O` [Example S34, 7′-(2,4-difluorobenzylcarbamoyl)-9′-hydroxy-2′-isopropyl-1′,8′-dioxo-1′,2′,3′,8′-tetrahydrospiro[cyclobutane-1,4′-pyrido[1,2-a]pyrazine]- trans-3-yl methanesulfonate hydrochloride], under setting [2], the EC50 is 5.7 nM.
On to `CN1C[C@@]2(C[C@@H]2CO)n2cc(C(=O)NCc3cccc(Cl)c3F)c(=O)c(O)c2C1=O` [Example T15, (1S,2S)-N-(3-chloro-2-fluorobenzyl)-9′-hydroxy-2-(hydroxymethyl)-2′-methyl-1′,8′-dioxo-1′,2′,3′,8′-tetrahydrospiro[cyclopropane-1,4′-pyrido[1,2-a]pyrazine]-7′-carboxamide hydrochloride], for which, under setting [3], the EC50 was found to be 20 nM.
On the same count and under the same terms, with `CCOc1ccc(CNC(=O)c2cn3c(c(O)c2=O)C(=O)N(C)C[C@@]32C[C@@H]2COC)c(F)c1Cl` [Example T37, (1S,2S)-N-(3-chloro-4-ethoxy-2-fluorobenzyl)-9′-hydroxy-2-(methoxymethyl)-2′-methyl-1′,8′-dioxo-1′,2′,3′,8′-tetrahydrospiro[cyclopropane-1,4′-pyrido[1,2-a]pyrazine]-7′-carboxamide hydrochloride] the figure was 93 nM.
On to `CN1C[C@]2(C[C@H](O)C2)n2cc(C(=O)NCc3ccc(F)cc3F)c(=O)c(O)c2C1=O` [Example S12, N-(2,4-difluorobenzyl)-cis-3,9′-dihydroxy-2′-methyl-1′,8′-dioxo-1′,2′,3′,8′-tetrahydrospiro[cyclobutane-1,4′-pyrido[1,2-a]pyrazine]-7′-carboxamide hydrobromide], for which, under setting [4], the EC50 was found to be 23 nM.
On to `CCCCCCCCCCCCCCCC(=O)Oc1c2n(cc(C(=O)NCc3cccc(Cl)c3F)c1=O)[C@]1(CN(C)C2=O)C[C@H](COC)C1` [Example S69, 7′-(3-chloro-2-fluorobenzylcarbamoyl)-cis-3-(methoxymethyl)-2′-methyl-1′,8′-dioxo-1′,2′,3′,8′-tetrahydrospiro[cyclobutane-1,4′-pyrido[1,2-a]pyrazin]-9′-yl palmitate], for which the EC50 under setting [2] was found to be 1 nM.
Turning to `COC[C@@H]1C[C@]12Cn1cc(C(=O)NCc3cccc(Cl)c3F)c(=O)c(O)c1C(=O)N2C` [Example T50, (1R,2R)-N-(3-chloro-2-fluorobenzyl)-9′-hydroxy-2-(methoxymethyl)-2′-methyl-1′,8′-dioxo-1′,2′,4′,8′-tetrahydrospiro[cyclopropane-1,3′-pyrido[1,2-a]pyrazine]-7′-carboxamide hydrochloride], the EC50 under setting [3] turned out to be 3.7 nM.
As to `CO[C@H]1C[C@@]2(CN(C)C(=O)c3c(O)c(=O)c(C(=O)NCc4cccc(Cl)c4F)cn32)C1` [Example 2, N-(3-chloro-2-fluorobenzyl)-9′-hydroxy-trans-3-methoxy-2′-methyl-1′,8′-dioxo-1′,2′,3′,8′-tetrahydrospiro[cyclobutane-1,4′-pyrido[1,2-a]pyrazine]-7′-carboxamide hydrochloride], the midpoint of the response under setting [1], the EC50, lay at 4.2 nM.
On to `CCN1C(=O)c2c(O)c(=O)c(C(=O)NCc3cccc(Cl)c3F)cn2C[C@]12C[C@@H](CO)C2` [Example S58, N-(3-chloro-2-fluorobenzyl)-2′-ethyl-9′-hydroxy-trans-3-(hydroxymethyl)-1′,8′-dioxo-1′,2′,4′,8′-tetrahydrospiro[cyclobutane-1,3′-pyrido[1,2-a]pyrazine]-7′-carboxamide hydrochloride], for which the EC50 under setting [2] is 6.8 nM.
The same measure, in the same setting: with `COC[C@H]1C[C@@]2(CN(C)C(=O)c3c(O)c(=O)c(C(=O)NCc4cccc(Cl)c4F)cn32)C1` [Example 27, N-(3-chloro-2-fluorobenzyl)-9′-hydroxy-trans-3-(methoxymethyl)-2′-methyl-1′,8′-dioxo-1′,2′,3′,8′-tetrahydrospiro[cyclobutane-1,4′-pyrido[1,2-a]pyrazine]-7′-carboxamide] the figure was 1.5 nM.
For the compound `CO[C@H]1C[C@@]2(CN(C(C)C)C(=O)c3c(O)c(=O)c(C(=O)NCc4ccc(F)cc4F)cn32)C1` [Example S5, N-(2,4-difluorobenzyl)-9′-hydroxy-2′-isopropyl-trans-3-methoxy-1′,8′-dioxo-1′,2′,3′,8′-tetrahydrospiro[cyclobutane-1,4′-pyrido[1,2-a]pyrazine]-7′-carboxamide hydrochloride], under setting [4], the EC50 is 4.4 nM.
Turning to `CN1C(=O)c2c(O)c(=O)c(C(=O)NCc3cccc(Cl)c3F)cn2C[C@]12C[C@H]2CO` [Example T49, (1R,2R)-N-(3-chloro-2-fluorobenzyl)-9′-hydroxy-2-(hydroxymethyl)-2′-methyl-1′,8′-dioxo-1′,2′,4′,8′-tetrahydrospiro[cyclopropane-1,3′-pyrido[1,2-a]pyrazine]-7′-carboxamide], under setting [2], the EC50 is 7.2 nM.
Consider `CCN1C[C@@]2(C[C@H]2CO)n2cc(C(=O)NCc3cccc(Cl)c3F)c(=O)c(O)c2C1=O` [Example T29, (1S,2R)-N-(3-chloro-2-fluorobenzyl)-2′-ethyl-9′-hydroxy-2-(hydroxymethyl)-1′,8′-dioxo-1′,2′,3′,8′-tetrahydrospiro[cyclopropane-1,4′-pyrido[1,2-a]pyrazine]-7′-carboxamide hydrochloride], for which, under setting [3], the EC50 was determined as 4.8 nM.
Turning to `COc1ccc(CNC(=O)c2cn3c(c(O)c2=O)C(=O)N(C)C[C@]32C[C@@H](CO)C2)c(F)c1Cl` [Example S49], the EC50 under setting [2] amounted to 65 nM.
With `CCN1C[C@@]2(C[C@@H]2C(=O)N(C)C)n2cc(C(=O)NCc3ccc(F)cc3F)c(=O)c(O)c2C1=O` [Example 19, (1S,2S)—N^7′-(2,4-difluorobenzyl)-2′-ethyl-9′-hydroxy-N^2,N^2-dimethyl-1′,8′-dioxo-1′,2′,3′,8′-tetrahydrospiro[cyclopropane-1,4′-pyrido[1,2-a]pyrazine]-2,7′-dicarboxamide hydrochloride], under setting [4], the EC50 came to 4.2 nM.
On to `CN1C[C@@]2(C[C@@H]2CO)n2cc(C(=O)NCc3ccc(F)cc3F)c(=O)c(O)c2C1=O` [Example T4, (1S,2S)-N-(2,4-difluorobenzyl)-9′-hydroxy-2-(hydroxymethyl)-2′-methyl-1′,8′-dioxo-1′,2′,3′,8′-tetrahydrospiro[cyclopropane-1,4′-pyrido[1,2-a]pyrazine]-7′-carboxamide hydrochloride], for which the EC50 under setting [3] worked out at 30 nM.
`COCCO[C@H]1C[C@@]2(CN(C(C)C)C(=O)c3c(O)c(=O)c(C(=O)NCc4ccc(F)cc4F)cn32)C1` [Example S8, N-(2,4-difluorobenzyl)-9′-hydroxy-2′-isopropyl-trans-3-(2-methoxyethoxy)-1′,8′-dioxo-1′,2′-3′,8′-tetrahydrospiro[cyclobutane-1,4′-pyrido[1,2-a]pyrazine]-7′-carboxamide hydrochloride]: under setting [4], the EC50 was found to be 5.3 nM.
With `COC[C@H]1C[C@@]12CN(C(C)C)C(=O)c1c(O)c(=O)c(C(=O)NCc3cccc(Cl)c3F)cn12` [Example T12, (1S,2S)-N-(3-chloro-2-fluorobenzyl)-9′-hydroxy-2′-isopropyl-2-(methoxymethyl)-1′,8′-dioxo-1′,2′,3′,8′-tetrahydrospiro[cylcopropane-1,4′-pyrido[1,2-a]pyrazine]-7′-carboxamide hydrochloride], the EC50 under setting [2] was determined as 5.7 nM.
For the compound `CC(C)N1CC2(CC(O)C2)n2cc(C(=O)NCc3ccc(F)cc3F)c(=O)c(O)c2C1=O` (single isomer, unassigned) [Example S4, N-(2,4-difluorobenzyl)-cis-3,9′-dihydroxy-2′-isopropyl-1′,8′-dioxo-1′,2′,3′,8′-tetrahydrospiro[cyclobutane-1,4′-pyrido[1,2-a]pyrazine]-7′-carboxamide], the EC50 under setting [4] stood at 4.9 nM.

The values are drawn from US10087178B2, “Substituted spiropyrido[1,2-a]pyrazine derivative and medicinal use thereof as HIV integrase inhibitor” (priority 2012, dated 2018).
